{
  "source": "patent US10201507B2",
  "about": "“Modulators of intracellular chloride concentration for treating fragile X syndrome” (NEUROCHLORE, priority 2012, dated 2019)",
  "key": {"hippocampal slices": {"tested_on": "hippocampal slices", "assay": "Extracellular field potentials / spike frequency in hippocampal slices at P15 on isoguvacine", "type": "cell-based, mouse", "excerpt": "Recording were made in the hippocampal slices using tungsten wire electrodes (diameter: 50 μm, California Fine Wire, Grover Beach, Calif.) and a low-noise multichannel DAM-8A amplifiers (WPI, GB; […]; gain: ×1000). The signals were digitized using an analogue-to-digital converter (Digidata 1440A, Axon Instruments, USA). pCLAMP 10.1, Clampfit 10.1 (Axon Instruments, USA), MiniAnalysis 6.03 (Synaptosoft, Decatur, Calif.) and Origin 7.5 (Microcal Software, USA) programs were used for the acquisition and analysis of the synaptic activities. Sampling interval per signal was 100 microseconds (10 kHz).\nTo test whether depolarizing actions of GABA were associated with neuronal excitation, the effect of the GABAA receptor agonist isoguvacine was tested. […] To test whether maternal treatment with bumetanide before delivery switches the action of GABA from excitatory to inhibitory in offsprings at P15, pregnant females were treated orally 1 day before delivery with bumetanide (2-2.5 mg/kg in drinking water) and juvenile offspring neurons recorded at P15. […] Therefore, excitatory actions of GABA during delivery produce long term deleterious effects on electrophysiological parameters of FXS juvenile neurons. In FXS mice, GABAergic inputs are excitatory and contribute to hyperexcitability of the network. Bumetanide decreases [Cl^−]i and consequently reduces contribution of excitatory GABAergic inputs in the overall network activity."}, "[1]": {"tested_on": "hippocampal CA3 pyramidal neurons", "assay": "Whole-cell recordings of spontaneous excitatory postsynaptic currents (sEPSCs) at P15 after maternal pretreatment", "type": "in vivo, mouse", "details": "FXS offspring P15, maternal pretreatment, −70 mV", "procedure": "Standard whole-cell recordings were performed in coronal neocortical rat or mouse brain slices at room temperature (20-22° C.) from the soma of hippocampal CA3 neurons using an EPC-10 (HEKA Elektronik, Germany) amplifier and filtered at 3-10 kHz. The internal solution contained (in mM): 130 K-gluconate, 10 Na-gluconate, 4 NaCl, 4 MgATP, 4 phosphocreatine, 10 HEPES, and 0.3 GTP (pH 7.3 with KOH). Biocytin (final concentration 0.3-0.5%) was added to the pipette solution to label the neurons from which recordings were obtained. Neurons were visualized by using infrared DIC video microscopy. Spontaneous postsynaptic currents were recorded for […] at the reversal potentials for GABAergic currents (-70 mV). […] Stored data were analyzed using the Mini Analysis 6.0.3 (Synaptosoft Inc., […].) and Origin (MicroCal, Northampton, Mass.) software. […] Data are expressed as mean±S.E.M. To test whether depolarizing actions of GABA were associated with neuronal excitation, the effect of the GABAA receptor agonist isoguvacine was tested. […] To test whether maternal treatment with bumetanide before delivery switches the action of GABA from excitatory to inhibitory in offsprings at P15, pregnant females were treated orally 1 day before delivery with bumetanide (2-2.5 mg/kg in drinking water) and juvenile offspring neurons recorded at P15. […]"}, "[2]": {"tested_on": "child with Fragile X syndrome", "assay": "Clinical case study, side effects, blood tests, blood ions and weight", "type": "in vivo, human", "procedure": "This example is a case reports presenting the treatment by bumetanide of a child with Fragile X syndrome.\nStarting from the 5 Jan. 2011, the child received bumetanide twice a day (0.5 mg morning and 0.5 mg evening) during three months. Several biological tests were made at baseline (D0) and then after 7 days (D7), one month (M1), two months (M2) and three months (M3) of treatment. They checked orthostatic hypotension, allergy, cramps, asthenia, diarrhea, myalgia, arthralgia, vertigo and nausea. Blood tests included γ-glutamyltransferase, transaminases, alkaline phosphatases, glycemia, uric acid and creatine, in addition to blood Na^+ and K^+."}},
  "data": [
    {"smiles": "CCCCNc1cc(C(=O)O)cc(S(N)(=O)=O)c1Oc1ccccc1", "note": "[bumetanide]", "values": [
      {"measurement": "normalized spike frequency", "setting": "hippocampal slices; FXS mice pretreated with bumetanide, P15, on isoguvacine (10 μM)", "result": "80.8±8.2", "unit": "%"},
      {"measurement": "Effect on excitatory actions of isoguvacine (in words)", "setting": "hippocampal slices; FXS offspring P15, maternal pretreatment", "result": "suppressed the excitatory actions"},
      {"measurement": "ongoing activity and frequency of glutamatergic sEPSCs (in words)", "setting": "[1]", "result": "significantly reduced"},
      {"measurement": "Weight", "setting": "[2]; 1 month (M1) of treatment", "result": 25.1, "unit": "kg"},
      {"measurement": "blood K^+", "setting": "[2]; 1 month (M1) of treatment", "result": 4.3, "unit": "mmol/L"},
      {"measurement": "blood Na^+", "setting": "[2]; 1 month (M1) of treatment", "result": 139, "unit": "mmol/L"},
      {"measurement": "Weight", "setting": "[2]; 2 months (M2) of treatment", "result": 25.4, "unit": "kg"},
      {"measurement": "blood K^+", "setting": "[2]; 2 months (M2) of treatment", "result": 3.5, "unit": "mmol/L"},
      {"measurement": "blood Na^+", "setting": "[2]; 2 months (M2) of treatment", "result": 140, "unit": "mmol/L"},
      {"measurement": "Weight", "setting": "[2]; 3 months (M3) of treatment", "result": 25.7, "unit": "kg"},
      {"measurement": "blood K^+", "setting": "[2]; 3 months (M3) of treatment", "result": 3.6, "unit": "mmol/L"},
      {"measurement": "blood Na^+", "setting": "[2]; 3 months (M3) of treatment", "result": 139, "unit": "mmol/L"},
      {"measurement": "Natremia (in words)", "setting": "[2]; 3 months of treatment", "result": "unaltered"},
      {"measurement": "body weight (in words)", "setting": "[2]; 3 months of treatment", "result": "not altered"},
      {"measurement": "blood K^+ (in words)", "setting": "[2]; 3 months of treatment, inferior limit 3.5 mmol/1", "result": "reduced to a value close to the inferior limit"},
      {"measurement": "Weight", "setting": "[2]; 7 days (D7) of treatment", "result": 25.2, "unit": "kg"},
      {"measurement": "blood K^+", "setting": "[2]; 7 days (D7) of treatment", "result": 3.6, "unit": "mmol/L"},
      {"measurement": "blood Na^+", "setting": "[2]; 7 days (D7) of treatment", "result": 143, "unit": "mmol/L"},
      {"measurement": "side effect in clinical examination", "setting": "[2]; orthostatic hypotension, allergy, cramps, asthenia, diarrhea, myalgia, arthralgia, vertigo, nausea, 3 months", "result": "no side effect"},
      {"measurement": "Conventional blood tests", "setting": "[2]; γ-glutamyltransferase, transaminases, alkaline phosphatases, glycemia, uric acid, creatine, 3 months", "result": "unaffected"}
    ]}
  ]
}
